Reference: patent US11846640B2, “Identification of anticoagulants in a sample” (DSM IP Assets B.V., priority 2013, dated 2023)

What was measured:
Format in all cases: biochemical, human
normal plasma pool (NPP) [1] = assay: PiCT Method 4 (inverted PiCT) clotting time on ACL TOP 500; conditions: for Clotting time: Table 10A, PiCT Method 4, NPP spiked, mean n = 4; for PiCT ® method 4 clotting time: Table 11
Experimental: The present invention is in one aspect directed to the use of a clotting assay, in particular the PiCT® testing method on a detection system such as e.g. the ACL TOP® 500 analyzer and to a method to quantitatively and qualitatively detect anticoagulants in a sample, e.g. blood or plasma. […] PiCT® Method 4 or PiCT® inverted includes that first the start reagent is added to the sample, the mixture allowed to proceed according to the manufacturer's instructions followed by addition of the activator, i.e. a reversed order compared to standard PiCT® (see above). PiCT® Method 1 to 4 is described in more detail in the Examples.
(§1) The 4 methods (see above) are in more detail described in the Examples. Specific pipetting schemes were designed using NPP spiked with incremental amounts of anticoagulants in order to achieve high reproducibility of the test system, which is required for drug identification including use in a POC system. With regards to the ACL TOP® 500 analyzer, PiCT® Method 1 to 4 has been established as follows: • PiCT® Method 1: 50 μl of plasma is incubated for 180 sec with 50 μl of reagent 1 and afterwards 50 μl of reagent 2 is added and the time to clot is recorded on the ACL TOP® 500 (i.e. pipetting scheme: P-50/A-50/I-180/50-S).
After calculation of the RR for the different kind of anticoagulants (see Example 1) samples of NPP spiked with incremental amounts of anticoagulants were used in the ACL TOP® 500, wherein 45 μl start reagent was incubated with 140 μl plasma for 60 sec. The time to clot was recorded after addition of 40 μl of activator (i.e. so-called inverted PiCT®).

plasma samples = assay: PT (HemosIL PT recombiplastin) clotting time; conditions: for Clotting time with PT: Table 6, spiked plasma, mean
Experimental: In order to address the above question, i.e. to determine the nature of an anticoagulant in a sample, a combination of several methods has to be performed, including PiCT® Method 1, PiCT® Method 4, aPTT (HemosIL™ aPTT SP), PT (HemosIL™ PT recombiplastin), and sometimes even a modified PiCT® Method 1 wherein polybrene has been added. In order to simulate this, plasma samples spiked with different levels of anticoagulants were analyzed using the ACL TOP® 500 analyzer.

normal plasma pool (NPP) [2] = assay: PiCT Method 1 (standard Pefakit PiCT) clotting time on ACL TOP 500; conditions: for Clotting time with PiCT ® Method 1: spiked plasma
From the text: As described by Korte et al. (supra) or in EP 1240528, Pefakit® PiCT® is a functional clotting assay based on the direct activation of the prothrombinase complex which results in a fine-tuned analytical output directly proportional to the final anticoagulant activity of the factor Xa or factor IIa inhibitors (see Calatzis, Haemostasis 2000, 30:172-174). To perform the Pefakit® PiCT® test (referred to herein as standard “PiCT® or PiCT® Method 1), a defined amount of PiCT® activator (=reagent 1) is added to a sample, such as, e.g., plasma. The mixture is allowed to proceed at 37° C. for a specific period of time. The Start reagent (=reagent 2) is then added to the mixture and the time required for clot formation is measured. The presence of anticoagulants in the samples dose-dependently prolongs the time to clot. Pefakit® PiCT® is adapted to laboratory instruments based on mechanical or optical detection systems, including but not limited to ACL TOP® family (Instrumentation Laboratory), preferably ACL TOP® 500, STA Compact® series (Stago) or the BCS® XP series (Siemens).
as §1, with “P-50/A-50/I-180/50-S). This method is in particularly useful for detection of UFH, LMWH or hirudin. • PiCT® Method 2: P-75/A-65/I-180/35-S on the ACL TOP® 500 or P-80/A-65/I-180/40-S on the STA Compact® or P-75/A-65/I-180/S-40 on the BCS® XP. This method is in particularly useful for fondaparinux. • PiCT® Method 3: P-90/A-70/I-180/40-S on the ACL TOP® 500 or STA Compact®, or P-70/A-60/I-180/45-S on the BCS® XP. This method is in particularly useful for dabigatran or argatroban. • PiCT® Method 4: P-140/S-45/I160/A-40 on the ACL TOP® 500 or STA Compact®, or P-125/S-45/I-150/A-40 on the BCS® XP. This method is in particularly useful for rivaroxaban or apixaban.” for “P-50/A-50/I-180/50-S).”
With the normal PiCT®, i.e. PiCT® Method 1, wherein 50 μl of plasma is mixed with the same amount of reagent 1 (PiCT® activator), incubated for 180 sec and mixed with the same amount of reagent 2 (PiCT® start reagent) in a ACL TOP® 500 analyzer, the presence of NOACs cannot be determined in a sample. This is true even at high levels of said drugs in the sample, i.e. in the range of 300 ng/ml. Thus, in order to determine which NOAC is present in the sample, a combination of PiCT® Method 1 and PiCT® method 4 has to be used (see above for detailed description). To confirm this, spiked plasma samples with different levels of NOACs were prepared and the clotting time measured using first PiCT® Method 1 followed by PiCT® Method 4. […] In case of dabigatran present in the sample, both PiCT® Method 1 (which had to be adapted, i.e. PiCT® Method 3) and 4 are out of range as indicated in bold.

In the case of CC1CNc2c(cccc2S(=O)(=O)N[C@@H](CCCNC(=N)N)C(=O)N2CC[C@@H](C)C[C@@H]2C(=O)O)C1 (stereo partly shown) [argatroban], the “Clotting time with PiCT ® Method 4” value (normal plasma pool (NPP) [1]; Table 4, NPP spiked with 0.3 μg per ml) is reported as 147 s, the “Clotting time with PiCT ® Method 4” value (normal plasma pool (NPP) [1]; Table 6, spiked plasma, 0.3 μg, mean) is reported as 147.4 s and the “Clotting time with PiCT ® Method 4” value (normal plasma pool (NPP) [1]; Table 6, spiked plasma, 1.5 μg, mean) is reported as 300.0 s. For the same compound, the “Clotting time with PT” value (plasma samples; 0.3 μg) was 15.0 s, the “Clotting time with PT” value (plasma samples; 1.5 μg) was 31.2 s and the “Clotting time with PiCT ® Method 1” value (normal plasma pool (NPP) [2]; Table 6, 0.3 μg, mean) was 98.5 s. The “Clotting time with PiCT ® Method 1” value (normal plasma pool (NPP) [2]; Table 6, 1.5 μg, mean) was 150.3 s.

In the case of O=C(NC[C@H]1CN(c2ccc(N3CCOCC3=O)cc2)C(=O)O1)c1ccc(Cl)s1 [rivaroxaban], the “Clotting time with PiCT ® Method 4” value (normal plasma pool (NPP) [1]; Table 4, NPP spiked with 20 ng per ml) is reported as 70 s, the “Clotting time with PiCT ® Method 4” value (normal plasma pool (NPP) [1]; Table 4, NPP spiked with 35 ng per ml) is reported as 80 s and the “Clotting time with PiCT ® Method 4” value (normal plasma pool (NPP) [1]; Table 5, spiked plasma, 20 ng per ml) is reported as 70 s. For the same compound, the “Clotting time with PiCT ® Method 4” value (normal plasma pool (NPP) [1]; Table 5, spiked plasma, 35 ng per ml) was 80 s, the “Clotting time with PiCT ® Method 4” value (normal plasma pool (NPP) [1]; Table 5, spiked plasma, 300 ng per ml) was 162.1 s and the “Clotting time with PiCT ® Method 4” value (normal plasma pool (NPP) [1]; Table 6, spiked plasma, 50 ng, mean) was 83.6 s. For the same compound, the “Clotting time with PiCT ® Method 4” value (normal plasma pool (NPP) [1]; Table 6, spiked plasma, 200 ng, mean) was 132.8 s, the Clotting time (normal plasma pool (NPP) [1]; 5 ng/ml) was 71 s and the Clotting time (normal plasma pool (NPP) [1]; 10 ng/ml) was 83 s. It also gave a Clotting time (normal plasma pool (NPP) [1]; 50 ng/ml) of 118 s, a Clotting time (normal plasma pool (NPP) [1]; 100 ng/ml) of 149 s and a Clotting time (normal plasma pool (NPP) [1]; 200 ng/ml) of 191 s. It also gave a Clotting time (normal plasma pool (NPP) [1]; 300 ng/ml) of 220 s, a Clotting time (normal plasma pool (NPP) [1]; 400 ng/ml) of 248 s and a Clotting time (normal plasma pool (NPP) [1]; 500 ng/ml) of 270 s. The Clotting time (normal plasma pool (NPP) [1]; 600 ng/ml) was 278 s, the “PiCT ® method 4 clotting time” value (normal plasma pool (NPP) [1]; spiked plasma, 20 ng/mL (wash off level)) was 70 sec (n = 3) and the “PiCT ® method 4 clotting time” value (normal plasma pool (NPP) [1]; spiked plasma, 35 ng/mL (wash off level)) was 80 sec (n = 3). For the same compound, the “Clotting time with PT” value (plasma samples; 50 ng) was 12.2 s, the “Clotting time with PT” value (plasma samples; 200 ng) was 20.3 s and the “PT clotting time relative to reference range (RR)” value (plasma samples; only at higher doses, in the range of 200 ng or more) was “above the RR”. The “Clotting time with PiCT ® Method 1” value (normal plasma pool (NPP) [2]; Table 5, 20 ng per ml (title: Method 3 for dabigatran)) was 17 s, the “Clotting time with PiCT ® Method 1” value (normal plasma pool (NPP) [2]; Table 5, 35 ng per ml (title: Method 3 for dabigatran)) was 18 s and the “Clotting time with PiCT ® Method 1” value (normal plasma pool (NPP) [2]; Table 5, 300 ng per ml (title: Method 3 for dabigatran)) was 29.3 s. The “Clotting time with PiCT ® Method 1” value (normal plasma pool (NPP) [2]; Table 6, 50 ng, mean) was 19.0 s, the “Clotting time with PiCT ® Method 1” value (normal plasma pool (NPP) [2]; Table 6, 200 ng, mean) was 25.5 s and the “Clotting time with standard PiCT (Method 1) relative to reference range (RR)” value (normal plasma pool (NPP) [2]; concentrations in the range of about 300 ng/ml in the sample) was “in the RR”.
